Where a name gives a salt, the structure may show the parent alone.
Assays:
Assay in all cases: Enzyme Inhibition Assay
Aminopeptidase N = target: T1, Aminopeptidase N (Sus scrofa, UniProt P15145)
T1 sequence (P15145 whole entry): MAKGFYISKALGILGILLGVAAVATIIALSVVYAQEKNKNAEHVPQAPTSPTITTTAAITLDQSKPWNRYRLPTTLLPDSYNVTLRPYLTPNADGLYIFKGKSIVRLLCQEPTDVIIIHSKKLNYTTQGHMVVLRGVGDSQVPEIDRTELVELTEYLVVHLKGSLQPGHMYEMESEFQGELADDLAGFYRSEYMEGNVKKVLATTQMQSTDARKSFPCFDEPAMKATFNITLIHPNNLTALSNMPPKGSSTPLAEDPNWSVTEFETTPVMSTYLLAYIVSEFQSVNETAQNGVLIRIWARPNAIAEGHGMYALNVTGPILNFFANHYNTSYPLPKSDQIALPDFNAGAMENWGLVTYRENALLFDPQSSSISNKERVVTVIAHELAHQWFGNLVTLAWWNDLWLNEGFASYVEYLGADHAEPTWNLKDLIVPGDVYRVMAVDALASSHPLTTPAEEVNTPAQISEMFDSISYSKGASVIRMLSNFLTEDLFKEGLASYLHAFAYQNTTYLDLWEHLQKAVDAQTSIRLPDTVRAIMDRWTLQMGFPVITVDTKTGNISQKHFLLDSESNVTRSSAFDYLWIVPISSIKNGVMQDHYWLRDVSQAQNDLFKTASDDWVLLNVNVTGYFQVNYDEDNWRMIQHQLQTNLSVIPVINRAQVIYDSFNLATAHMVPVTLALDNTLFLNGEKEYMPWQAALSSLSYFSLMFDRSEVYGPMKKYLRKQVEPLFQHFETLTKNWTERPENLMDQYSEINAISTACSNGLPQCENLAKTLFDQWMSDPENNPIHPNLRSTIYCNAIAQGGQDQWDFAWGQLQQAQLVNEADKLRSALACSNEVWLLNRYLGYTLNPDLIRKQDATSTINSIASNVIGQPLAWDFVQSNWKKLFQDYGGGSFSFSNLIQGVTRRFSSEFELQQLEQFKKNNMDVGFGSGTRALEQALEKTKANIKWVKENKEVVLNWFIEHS

[1] = target: Bacterial leucyl aminopeptidase (Vibrio proteolyticus, UniProt Q01693)
Bacterial leucyl aminopeptidase, sequence (Q01693 whole entry): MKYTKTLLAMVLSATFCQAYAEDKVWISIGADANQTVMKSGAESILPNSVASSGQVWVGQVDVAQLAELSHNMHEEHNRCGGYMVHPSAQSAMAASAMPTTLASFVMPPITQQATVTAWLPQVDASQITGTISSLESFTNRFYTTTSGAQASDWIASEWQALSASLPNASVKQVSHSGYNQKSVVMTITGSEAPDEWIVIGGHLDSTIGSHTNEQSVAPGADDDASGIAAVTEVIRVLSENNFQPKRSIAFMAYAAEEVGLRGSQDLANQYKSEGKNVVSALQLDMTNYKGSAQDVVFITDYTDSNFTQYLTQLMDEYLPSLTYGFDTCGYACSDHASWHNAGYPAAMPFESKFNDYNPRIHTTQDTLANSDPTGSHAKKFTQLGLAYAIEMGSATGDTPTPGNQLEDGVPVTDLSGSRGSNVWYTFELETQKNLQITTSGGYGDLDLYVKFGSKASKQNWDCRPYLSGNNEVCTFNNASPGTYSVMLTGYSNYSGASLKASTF

[2] = target: T2, Leukotriene A-4 hydrolase (Homo sapiens, UniProt P09960)
T2 sequence (P09960 whole entry): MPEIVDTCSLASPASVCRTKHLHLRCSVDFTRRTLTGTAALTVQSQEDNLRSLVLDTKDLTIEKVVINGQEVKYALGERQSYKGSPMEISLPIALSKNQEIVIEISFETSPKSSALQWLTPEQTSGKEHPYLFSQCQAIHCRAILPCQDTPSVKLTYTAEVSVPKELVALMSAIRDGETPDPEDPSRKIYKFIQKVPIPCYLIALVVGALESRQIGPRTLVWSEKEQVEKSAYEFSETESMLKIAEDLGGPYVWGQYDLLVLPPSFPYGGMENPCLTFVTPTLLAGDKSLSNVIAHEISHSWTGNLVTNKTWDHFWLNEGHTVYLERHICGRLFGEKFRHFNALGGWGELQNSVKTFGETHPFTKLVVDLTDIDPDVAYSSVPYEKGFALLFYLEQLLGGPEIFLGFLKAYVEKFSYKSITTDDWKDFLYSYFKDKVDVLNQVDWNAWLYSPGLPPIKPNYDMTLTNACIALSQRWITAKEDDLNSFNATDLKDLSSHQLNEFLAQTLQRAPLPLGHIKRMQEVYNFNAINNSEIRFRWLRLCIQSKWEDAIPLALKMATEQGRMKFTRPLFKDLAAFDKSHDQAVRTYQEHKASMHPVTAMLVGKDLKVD

Row | SMILES | IC50 (Aminopeptidase N) | Ki [1] | IC50 [2] | Ki (Aminopeptidase N) | IC50 ([1]; pH 8, 30 °C) | Ki [2] | IC50 [1]
1 | NC1Cc2ccccc2C/C1=N/OCCCc1ccccc1 (stereo not given) [(3Z)-3-[(3-phenylpropoxy)imino]-1,2,3,4-tetrahydronaphthalen-2-amine hydrochloride] | – | – | – | 110 µM | 300 µM | 6 µM | –
2 | NC1Cc2ccccc2C/C1=N/OCCCCCc1ccccc1 (stereo not given) [(3Z)-3-{[(5-phenylpentyl)oxy]imino}-1,2,3,4-tetrahydronaphthalen-2-amine hydrochloride] | – | – | – | 80 µM | 130 µM | 30 µM | –
3 | NC1Cc2ccccc2CC1P(=O)(O)O (stereo not given) [3-amino-1,2,3,4-tetrahydronaphthalene-2-phosphonic acid hydrochloride] | 500 µM | – | > 1000 µM | – | – | – | 150 µM
4 | NC1Cc2ccccc2C/C1=N/OCCCCc1ccccc1 (stereo not given) [(3Z)-3-[(4-phenylbutoxy)imino]-1,2,3,4-tetrahydronaphthalen-2-amine hydrochloride] | – | – | – | 55 µM | 110 µM | 8 µM | –
5 | O=C1CCc2ccccc2C1 [1,2,3,4-tetrahydronaphthalen-2-one] | > 1000 µM | – | > 1000 µM | – | – | – | > 1000 µM
6 | O=C1Cc2ccccc2CS1 [3,4-dihydro-1H-2-benzothiopyran-3-one] | > 1000 µM | 4 µM | > 1000 µM | – | – | – | –
7 | NN1Cc2ccccc2CC1=O [2-amino-1,2,3,4-tetrahydroisoquinolin-3-one] | > 1000 µM | – | > 1000 µM | – | – | – | 740 µM
8 | NC1CCc2ccccc2C1 [(2S)-1,2,3,4-Tetrahydro-naphthalen-2-ylamine] | > 1000 µM | – | > 1000 µM | – | > 1000 µM | – | –
9 | NC1Cc2ccccc2C/C1=N/OCc1ccccc1 (stereo not given) [(3Z)-3-[(benzyloxy)imino]-1,2,3,4-tetrahydronaphthalen-2-amine hydrochloride] | 790 µM | – | > 1000 µM | – | 210 µM | – | –

Results, then the compound that gave them:

Row | IC50 (Aminopeptidase N) | Ki [1] | IC50 [2] | Ki (Aminopeptidase N) | IC50 ([1]; pH 8, 30 °C) | Ki [2] | IC50 [1] | SMILES
10 | > 1000 µM | 4 µM | > 1000 µM | – | – | – | – | O=C1Cc2ccccc2CN1O [2-hydroxy-1,2,3,4-tetrahydroisoquinolin-3-one]
11 | – | – | > 1000 µM | 130 µM | 800 µM | – | – | CO/N=C1/Cc2ccccc2CC1N (stereo not given) [(3Z)-3-(methoxyimino)-1,2,3,4-tetrahydronaphthalen-2-amine hydrochloride]
12 | > 1000 µM | – | > 1000 µM | – | – | – | > 1000 µM | O=C1Cc2ccccc2CO1 [3,4-dihydro-1H-2-benzopyran-3-one]
13 | – | – | > 1000 µM | – | 130 µM | – | – | NC1Cc2ccccc2CC1=O (stereo not given) [3-amino-1,2,3,4-tetrahydronaphthalen-2-one hydrochloride]
14 | – | 4 µM | > 1000 µM | 4 µM | – | – | – | NC1Cc2ccccc2CC1C(=O)NO (stereo not given) [3-amino-N-hydroxy-1,2,3,4-tetrahydronaphthalene-2-carboxamide hydrochloride]
15 | > 1000 µM | 80 µM | > 1000 µM | – | – | – | – | NC1Cc2ccccc2NC1=O (stereo not given) [3-amino-1,2,3,4-tetrahydroquinolin-2-one hydrochloride]
16 | – | – | 500 µM | 260 µM | 170 µM | – | – | NC1Cc2ccccc2C/C1=N/OCCc1ccccc1 (stereo not given) [(3Z)-3-[(2-phenylethoxy)imino]-1,2,3,4-tetrahydronaphthalen-2-amine hydrochloride]
17 | > 1000 µM | – | 750 µM | – | 500 µM | – | – | CC(=O)C1Cc2ccccc2CC1N (stereo not given) [1-(3-amino-1,2,3,4-tetrahydronaphthalen-2-yl)ethan-1-one hydrochloride]
